Measurements taken from patent US20100021936A1, “Sensor for Spores” (priority 2007, published 2010).

Assays:
[1] = tested on: Bacillus megaterium QM B1551 spores; assay type: cell-based
[2] = tested on: CwlJ knock-out strain of Bacillus megaterium; assay type: cell-based
[3] = tested on: antibody-immobilised spores; assay type: cell-based
[4] = tested on: B. megaterium QM B1551 "receptorless" spore; assay type: cell-based, Bacillus megaterium

SMILES	concentration of Ca-DPA at which spores germinate [1] [mM]	germination in response to exogenous Ca-DPA [2]	germination response by micrographs [3]	germination response of receptorless spores [4]
O=C(O)c1cccc(C(=O)O)n1 [Ca-DPA, dipicolinic acid]	~30	does not germinate	–	–
C[C@H](N)C(=O)O [L-alanine]	–	–	transition from phase bright spores to phase dark	lost the ability to respond
